Earlier results on one compound are cited in US6881247B2, “Protective barrier coating composition” (priority 2003, dated 2005).

The conditions of the data set: calcium hydroxide.

On to `[Ca+2].[OH-].[OH-]` [calcium hydroxide, Calcium hydroxide], for which the pH was 12.4.
